Laboratory results as given in article PMC6091370, “Preclinical Evaluation of [^18F]LCATD as a PET Tracer to Study Drug-Drug Interactions Caused by Inhibition of Hepatic Transporters” (Contrast Media & Molecular Imaging, 2018).
Where “and” joins values, the source holds several entries; their conditions need not be identical. Identical values can stand only once.

What was measured:
OATP1B1 [1] = conditions: cited from earlier work
NTCP [2] = conditions: cited from earlier work
BSEP [3] = conditions: read-out: IC50 for BSEP; cited from earlier work
[4] = Dynamic PET/CT imaging of hepatic uptake and biliary excretion of [18F]LCATD in rats; format: in vivo, rat; conditions: for CLuptake,in vivo (in vivo hepatic uptake clearance): Patlak integration plot 0–3 min; for CLuptake,in vivo (in vivo hepatic uptake clearance) / t max (time to maximum peak concentration in liver) / AUCbile 0–10 min (radioactivity in the gastrointestinal tract) / AUCliver 0–5 min / AUCliver 0–30 min / CLint,bile (intrinsic biliary clearance of the radiotracer) / Kp liver 0−5 min (apparent liver-to-blood AUC0–5 min ratio) / Cmax,liver (maximum measured activity in the liver): n=3
Method: PET scans were performed with a preclinical PET/CT SEDECAL ARGUS scanner (SEDECAL, Spain) housed in a temperature-controlled suite. The scanner has two 11.8 cm diameter rings of photoswitch detectors coupled to position-sensitive photomultiplier tubes, giving a 4.8 cm axial and 7.5 cm transaxial field of view (FOV). All animals were cannulated (Venisystem Butterfly, Abbott Ireland) in the tail vein for tracer injection under general anaesthesia with isoflurane (IsoFlo 100% w/w, Abbott Laboratories Ltd) 2.5% (2 L·min^−1 oxygen flow). Animals were divided into three groups: control group (administered with [ ^18 F]LCATD only, 3 animals), rifamycin SV-treated group (3 animals) and fusidate-treated group (3 animals). All the animals were scanned in supine position. At the start of the scan, [ ^18 F]LCATD (5–15 MBq per body) was injected as a single bolus into the tail vein. Administered radioactivity was measured as the net counts in the syringe before and after the injection with an ionization chamber (Capintec CRC-15PET; Ramsey, New Jersey). The mass amount of [ ^18 F]LCATD administered per animal was estimated to be between 0.2 and 1 nmol. For inhibition experiments, rifamycin SV was administrated 45 minutes before the start of the scan at a dose of 50mg·Kg^−1 (intraperitoneally) and at the time of the tracer injection at a dose of 12.5 mg·Kg^−1 (intravenously). For the in vivo assessment of the inhibitory effect of sodium fusidate on the hepatobiliary transport of the tracer, the drug was administrated at a dose of 20 mg·Kg^−1 (intraperitoneally) 30 minutes before the scan and at a dose of 10 mg·Kg^−1 (intravenously) after 15 minutes from the tracer injection. Emission scans in 3D list-mode were acquired for 30 minutes (with a FOV encompassing part of the thorax and the intestine) followed by a 5 minutes CT scan. PET acquisitions were obtained with an energy window set to 250–700 keV and corrections for dead-time, activity decay, attenuation, random, and scatter counts were applied (using the manufacturer' software). The dynamic images were obtained by sorting the list mode data into the following time frames: 6 × 10 s, 8 × 30 s, 10 × 60 s, and 3 × 300 s, and images were reconstructed with a FORE/2D-OSEM reconstruction algorithm (provided by the manufacturer). Sampling at shorter intervals during early time-points enabled us to detect rapid increments of tracer uptake in the liver and intestine. […] A 5-minute PET scan of the injection site at the end of the CT was obtained to ensure successful intravenous injection. Cross calibration between the ionization chamber and the PET scanner was carried out by using a cylindrical phantom made of Perspex with internal diameter of 43 mm and length of 37 mm. 10 to 20 minute PET scans of the phantom filled with an average of about 4.20 MBq of [ ^18 F]LCATD in 60 g of water were acquired (average dead-time value 4%).
The registered PET and CT images were transferred from the scanner to a processing workstation, and subsequent analysis was carried out using Pmod (Pmod Technologies, CH) version 3.2. Regions of interest (ROIs) corresponding to abdominal aorta, liver, and gastrointestinal tract were defined via a combination of manual and threshold methods (Supplementary Figure 1 and movie) using PMOD software (PMOD Technologies). The stomach was included in the gastrointestinal ROI to include the amount of bile that might have refluxed from the duodenum into the stomach.
Uptake hepatic clearance CLuptake,in vivo was calculated by integration plots obtained applying the Patlak method in Pmod (Pmod Technologies, CH) version 3.2, limiting the linear fit to the uptake phase (0–3 min).
Intrinsic biliary clearance of the radiotracer CLint,bile was determined as proposed by Takashima et al. by quantification of the radiotracer in the liver and the intestine (as amount of radiotracer excreted into the bile).

[5] = Postmortem biodistribution of the tracer (gamma counting, 50 min postinjection); format: in vivo, rat; conditions: for activity in the terminal blood sample versus control: p < 0.05
Method: Samples of the liver, heart, and kidney were collected at the end of the PET-CT scan (after euthanasia) and homogenised with methanol (80% in water, 5 mL per gram of biological sample) by means of a homogenizer. Samples were stored in preweighed plastic vials. Terminal blood was collected by cardiac puncture just before euthanasia. The activity of the homogenates and blood samples was measured by means of a precalibrated gamma counter as soon as possible after the PET experiment.

[6] = Postmortem metabolites analysis by radio-HPLC; format: in vivo, rat; conditions: 50 min postinjection
Method: Analysis of metabolites in the blood, liver, and bile (extracted from the intestine) was performed via radio-HPLC. Blood samples, collected by cardiac puncture at the end of the PET-CT scan, were treated with an equal volume of acetonitrile, centrifuged for 1 minute at 1000 rpm and the supernatant was injected in radio-HPLC (Shimadzu Prominence HPLC system equipped with a PDA UV detector and HERM LB500 activity detector and Phenomenex Luna C18 column, 5 μm, 100 Å, 250 × 4.6 mm, injection volume 20 µL, PBS/CH3CN 60 : 40, isocratic elution, flow: 1 mL·min^−1). Samples of the liver and duodenum were collected at the end of the PET-CT scan (after euthanasia) homogenated with methanol (80% in water, 5 mL per gram of biological sample) by means of a homogenizer and centrifuged for 1 minute at 1000 rpm and the supernatant was injected in radio-HPLC.

OATP1B1 [7] = tested on: OATP1B1; set-up: method as in PMID 28011201; conditions: in vitro; cited from earlier work
NTCP [8] = tested on: NTCP; set-up: method as in PMID 28011201; conditions: in vitro; cited from earlier work
OATP1B3 = tested on: OATP1B3; set-up: method as in PMID 28011201; conditions: in vitro; cited from earlier work
BSEP [9] = tested on: BSEP; set-up: method as in PMID 28011201; conditions: in vitro; cited from earlier work
[10] = set-up: method as in PMID 28011201; conditions: in vitro; cited from earlier work
MRP2 transporter = tested on: MRP2 transporter; set-up: method as in PMID 27676153; conditions: 0.3–300 µM, increased efflux of LTC4, MRP2 transfected membrane vesicles; cited from earlier work
[11] = rifamycin SV-treated rats (total dose 62.5 mg·Kg^−1)

For CC(=O)O[C@H]1C[C@@]2(C)[C@@H](C[C@@H](O)[C@H]3[C@@]4(C)CC[C@@H](O)[C@@H](C)[C@@H]4CC[C@@]32C)/C1=C(\CCC=C(C)C)C(=O)O [sodium fusidate], the IC50 (OATP1B1 [1]) is given as 1600 to 35000 nM, the IC50 (NTCP [2]) is given as 44 µM and the IC50 (BSEP [3]) is given as 3.8 to 11.5 µM.
In the case of C[C@H](CCC(=O)NC(Cc1cn(CCCC[18F])nn1)C(=O)O)[C@H]1CC[C@H]2[C@@H]3CC[C@@H]4C[C@H](O)CC[C@]4(C)[C@H]3CC[C@]12C (some centres unmarked) [[ ^18 F]LCATD, LithoCholic Acid Triazole Derivative], the “activity in the liver 2 minutes after tracer injection” value (“activity in the liver 2 minutes” below) ([4]; control rats) is reported as 14.2 ± 0.8%, the “maximum activity recorded in the liver” value ([4]; control rats) is reported as 14.2 ± 0.8 % of the injected dose and the “residual activity in the liver after 30 minutes” value ([4]; control rats) is reported as 1.04 ± 0.17 % of the injected dose. The “CLuptake,in vivo (in vivo hepatic uptake clearance)” value (“CLuptake,in vivo” for short) ([4]; control rats, image-derived blood input) was 2.09 ± 0.27 mL/min/g, the “t max (time to maximum peak concentration in liver)” value ([4]; control rats, [18F]LCATD only, iv bolus) was 135 s and the “AUCbile 0–10 min (radioactivity in the gastrointestinal tract)” value (shortened to “AUCbile 0–10 min”) ([4]; control rats) was 89 ± 1 % ID·min·mL^−1. For the same molecule, the “AUCliver 0–5 min” value ([4]; control rats) was 58 ± 1 % ID·min·mL^−1, the “AUCliver 0–30 min” value ([4]; control rats) was 110 ± 15 % ID·min·mL^−1 and the “CLint,bile (intrinsic biliary clearance of the radiotracer)” value (from here on “CLint,bile”) ([4]; control rats) was 0.17 ± 0.03 mL/min/g. For the same molecule, the “Kp liver 0−5 min (apparent liver-to-blood AUC0–5 min ratio)” value ([4]; control rats) was 3.64 ± 0.09, the “activity in the liver after 30 minutes” value ([4]; fusidate-treated rats) was 1.02 ± 0.02 % of the injected dose and the “t max (time to maximum peak concentration in liver)” value ([4]; fusidate-treated rats (20 mg·Kg^−1 ip 30 min before scan + 10 mg·Kg^−1 iv 15 min after tracer injection)) was 135 s. For the same molecule, the “maximum activity recorded in the liver” value ([4]; fusidate-treated rats (30 mg·Kg^−1)) was 11.5 ± 0.3 % of the injected dose, the “CLuptake,in vivo” value ([4]; fusidate-treated rats) was 1.40 ± 0.13^∗ mL·min^−1·g^−1 and the “AUCbile 0–10 min” value ([4]; fusidate-treated rats) was 93 ± 19 % ID·min·mL^−1. The “AUCliver 0–5 min” value ([4]; fusidate-treated rats) was 48 ± 0.3^∗ % ID·min·mL^−1, the “AUCliver 0–30 min” value ([4]; fusidate-treated rats) was 89 ± 11 % ID·min·mL^−1 and the “CLint,bile” value ([4]; fusidate-treated rats) was 0.36 ± 0.03^∗ mL·min^−1·g^−1. For the same molecule, the “Cmax,liver (maximum measured activity in the liver)” value ([4]; fusidate-treated rats) was 11.5 ± 0.3^∗ % ID·mL^−1, the “Kp liver 0−5 min (apparent liver-to-blood AUC0–5 min ratio)” value ([4]; fusidate-treated rats) was 2.451 ± 0.016 and the “activity in the liver 2 minutes” value ([4]; rifamycin SV-treated rats) was 8.0 ± 0.6%. For the same molecule, the “activity in the liver after 30 minutes” value ([4]; rifamycin SV-treated rats) was 1.87 ± 0.13 % of the injected dose, the “t max (time to maximum peak concentration in liver)” value ([4]; rifamycin SV-treated rats (50 mg·Kg^−1 ip 45 min before scan + 12.5 mg·Kg^−1 iv at tracer injection)) was 225 s and the “delay of t max relative to control rats” value [4, 11] was 90 s. For the same molecule, the “maximum activity recorded in the liver” value [4, 11] was 10.2 ± 0.9 % of the injected dose and 10.2 ± 1.0 % of the injected dose, the “CLuptake,in vivo” value ([4]; rifamycin SV-treated rats) was 0.71 ± 0.05^∗ mL·min^−1·g^−1 and the “AUCbile 0–10 min” value ([4]; rifamycin SV-treated rats) was 53 ± 3^∗ % ID·min·mL^−1. For the same molecule, the “AUCliver 0–5 min” value ([4]; rifamycin SV-treated rats) was 44 ± 4^∗ % ID·min·mL^−1, the “AUCliver 0–30 min” value ([4]; rifamycin SV-treated rats) was 139 ± 9 % ID·min·mL^−1 and the “CLint,bile” value ([4]; rifamycin SV-treated rats) was 0.12 ± 0.03 mL/min/g. For the same molecule, the “Cmax,liver (maximum measured activity in the liver)” value ([4]; rifamycin SV-treated rats) was 10.2 ± 0.9^∗ % ID·mL^−1, the “Kp liver 0−5 min (apparent liver-to-blood AUC0–5 min ratio)” value ([4]; rifamycin SV-treated rats) was 2.07 ± 0.17 and the “activity in the liver 2 minutes” value ([4]; sodium fusidate-treated rats) was 11.4 ± 0.4%. For the same molecule, the “activity in the terminal blood sample versus control” value ([5]; fusidate-treated rats) was “significantly increased”, the “activity in the kidneys” value ([5]; postmortem) was < 0.1 % of the injected dose and the “activity in the terminal blood sample versus control” value ([5]; rifamycin SV-treated rats) was “significantly increased”. For the same molecule, the “metabolic stability of the tracer” value ([6]; in vivo, rat) was “at least 90%”, the “share of activity in intestine extracts as twin peak matching [18F]LCATD” value ([6]; radio-HPLC, intestine extracts of two control animals) was “over 90%” and the “transport by uptake transporter OATP1B1” value (OATP1B1 [7]) was “substrate”. For the same molecule, the “transport by uptake transporter NTCP” value (NTCP [8]) was “substrate”, the “transport by OATP1B3” value (OATP1B3) was “low affinity substrate” and the “transport by efflux transporter BSEP” value (BSEP [9]) was “excreted into the bile via the efflux transporter BSEP”. The passive permeability [10] was “low”.
In the case of CO[C@H]1/C=C/O[C@@]2(C)Oc3c(C)c(O)c4c(O)c(cc(O)c4c3C2=O)NC(=O)/C(C)=C\C=C\[C@H](C)[C@H](O)[C@@H](C)[C@@H](O)[C@@H](C)[C@H](OC(C)=O)[C@@H]1C [rifamycin SV], the IC50 (OATP1B1 [1]) is listed as 200 to 400 nM, the Ki (NTCP [2]; read-out: K i for NTCP) is listed as greater than 63 µM and the IC50 (BSEP [3]) is listed as 6.3 µM.
In the case of CC(=O)O[C@H]1C[C@@]2(C)[C@@H](C[C@@H](O)[C@H]3[C@@]4(C)CC[C@@H](O)[C@@H](C)[C@@H]4CC[C@@]32C)/C1=C(\CCC=C(C)C)C(=O)O [fusidic acid], the “effect on MRP2 transporter (canalicular efflux) in vitro” value (MRP2 transporter) is listed as “stimulate”.
